From publication PMC11637875, “Discovery of novel PARP1/NRP1 dual-targeting inhibitors with strong antitumor potency” (Frontiers in Pharmacology, 2024)

Key:
AKT1 = AKT1 (Homo sapiens, UniProt P31749); assay: Selectivity profile (123 kinase panel); assay type: biochemical
AurA = AurA (Homo sapiens, UniProt O14965); assay: Selectivity profile (123 kinase panel); assay type: biochemical
BRAF = BRAF (Homo sapiens, UniProt P15056); assay: Selectivity profile (123 kinase panel); assay type: biochemical
Chain of BRAF (P15056 whole entry): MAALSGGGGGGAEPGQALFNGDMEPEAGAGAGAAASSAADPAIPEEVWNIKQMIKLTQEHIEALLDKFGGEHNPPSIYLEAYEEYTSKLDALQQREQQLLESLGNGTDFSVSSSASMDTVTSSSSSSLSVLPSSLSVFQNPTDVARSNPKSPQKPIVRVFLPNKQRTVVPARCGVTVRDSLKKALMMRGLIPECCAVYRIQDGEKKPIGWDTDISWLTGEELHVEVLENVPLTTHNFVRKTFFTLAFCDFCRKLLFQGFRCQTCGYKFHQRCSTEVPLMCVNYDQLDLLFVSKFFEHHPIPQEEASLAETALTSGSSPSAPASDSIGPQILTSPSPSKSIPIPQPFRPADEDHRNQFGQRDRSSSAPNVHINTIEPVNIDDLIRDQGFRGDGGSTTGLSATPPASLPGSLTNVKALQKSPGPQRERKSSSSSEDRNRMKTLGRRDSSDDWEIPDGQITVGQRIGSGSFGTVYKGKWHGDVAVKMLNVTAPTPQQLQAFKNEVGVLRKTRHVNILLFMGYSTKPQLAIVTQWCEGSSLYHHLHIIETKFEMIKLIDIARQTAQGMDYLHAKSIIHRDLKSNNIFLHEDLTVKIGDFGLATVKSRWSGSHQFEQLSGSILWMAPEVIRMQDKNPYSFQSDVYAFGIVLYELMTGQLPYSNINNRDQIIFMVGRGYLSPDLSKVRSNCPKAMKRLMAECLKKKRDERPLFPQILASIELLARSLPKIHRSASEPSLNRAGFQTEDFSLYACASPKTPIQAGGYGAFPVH

CRAF = CRAF (Homo sapiens, UniProt P04049, Y340D/Y341D); assay: Selectivity profile (123 kinase panel); assay type: biochemical
Chain of CRAF (P04049 306-648 Y340D/Y341D limits assumed): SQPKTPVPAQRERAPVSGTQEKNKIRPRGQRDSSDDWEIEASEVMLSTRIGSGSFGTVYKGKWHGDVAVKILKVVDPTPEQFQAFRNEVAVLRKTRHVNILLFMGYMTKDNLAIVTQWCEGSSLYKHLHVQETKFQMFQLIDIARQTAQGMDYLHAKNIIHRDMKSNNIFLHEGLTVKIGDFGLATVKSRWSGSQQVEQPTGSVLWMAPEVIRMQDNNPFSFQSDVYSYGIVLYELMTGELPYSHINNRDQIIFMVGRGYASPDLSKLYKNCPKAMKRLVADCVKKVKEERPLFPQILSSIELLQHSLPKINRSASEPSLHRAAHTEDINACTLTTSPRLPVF

CK1γ2 = CK1γ2 (Homo sapiens, UniProt P78368); assay: Selectivity profile (123 kinase panel); assay type: biochemical
DDR2 = DDR2 (Homo sapiens, UniProt Q16832); assay: Selectivity profile (123 kinase panel); assay type: biochemical
DNA-PK = DNA-PK (Homo sapiens, UniProt P78527); assay: Selectivity profile (123 kinase panel); assay type: biochemical
DYRK4 = DYRK4 (Homo sapiens, UniProt Q9NR20); assay: Selectivity profile (123 kinase panel); assay type: biochemical
EGFR = EGFR (Homo sapiens, UniProt P00533); assay: Selectivity profile (123 kinase panel); assay type: biochemical
EPHA6 = EPHA6 (Homo sapiens, UniProt Q9UF33); assay: Selectivity profile (123 kinase panel); assay type: biochemical
EPHB2 = EPHB2 (Homo sapiens, UniProt P29323); assay: Selectivity profile (123 kinase panel); assay type: biochemical
Erk1 = Erk1 (Homo sapiens, UniProt P27361); assay: Selectivity profile (123 kinase panel); assay type: biochemical
Erk5 = Erk5 (Homo sapiens, UniProt Q13164); assay: Selectivity profile (123 kinase panel); assay type: biochemical
FGR = FGR (Homo sapiens, UniProt P09769); assay: Selectivity profile (123 kinase panel); assay type: biochemical
GSK3α = GSK3α (Homo sapiens, UniProt P49840); assay: Selectivity profile (123 kinase panel); assay type: biochemical
HIPK3 = HIPK3 (Homo sapiens, UniProt Q9H422); assay: Selectivity profile (123 kinase panel); assay type: biochemical
HIPK4 = HIPK4 (Homo sapiens, UniProt Q8NE63); assay: Selectivity profile (123 kinase panel); assay type: biochemical
Chain of HIPK4 (Q8NE63 whole entry): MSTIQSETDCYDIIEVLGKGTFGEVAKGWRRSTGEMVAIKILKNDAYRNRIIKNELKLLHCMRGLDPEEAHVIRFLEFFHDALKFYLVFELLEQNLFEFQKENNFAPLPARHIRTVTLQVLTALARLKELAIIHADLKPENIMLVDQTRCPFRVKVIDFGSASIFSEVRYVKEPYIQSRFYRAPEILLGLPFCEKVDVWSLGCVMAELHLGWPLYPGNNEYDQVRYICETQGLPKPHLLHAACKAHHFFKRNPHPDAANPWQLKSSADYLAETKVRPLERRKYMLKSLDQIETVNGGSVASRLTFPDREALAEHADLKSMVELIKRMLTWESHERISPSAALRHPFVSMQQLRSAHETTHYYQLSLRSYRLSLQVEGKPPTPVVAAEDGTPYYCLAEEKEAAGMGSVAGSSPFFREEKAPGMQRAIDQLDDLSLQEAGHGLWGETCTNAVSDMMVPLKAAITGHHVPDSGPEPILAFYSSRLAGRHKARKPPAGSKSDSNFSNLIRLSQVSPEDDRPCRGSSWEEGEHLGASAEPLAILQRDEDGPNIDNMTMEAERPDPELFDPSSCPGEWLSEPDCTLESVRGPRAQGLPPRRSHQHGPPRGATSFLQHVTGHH

INSR = INSR (Homo sapiens, UniProt P06213); assay: Selectivity profile (123 kinase panel); assay type: biochemical
JNK1 = JNK1 (Homo sapiens, UniProt P45983); assay: Selectivity profile (123 kinase panel); assay type: biochemical
LYNa = LYNa (Homo sapiens, UniProt P07948); assay: Selectivity profile (123 kinase panel); assay type: biochemical
MARK1 = MARK1 (Homo sapiens, UniProt Q9P0L2); assay: Selectivity profile (123 kinase panel); assay type: biochemical
MARK2 = MARK2 (Homo sapiens, UniProt Q7KZI7); assay: Selectivity profile (123 kinase panel); assay type: biochemical
Chain of MARK2 (Q7KZI7 whole entry): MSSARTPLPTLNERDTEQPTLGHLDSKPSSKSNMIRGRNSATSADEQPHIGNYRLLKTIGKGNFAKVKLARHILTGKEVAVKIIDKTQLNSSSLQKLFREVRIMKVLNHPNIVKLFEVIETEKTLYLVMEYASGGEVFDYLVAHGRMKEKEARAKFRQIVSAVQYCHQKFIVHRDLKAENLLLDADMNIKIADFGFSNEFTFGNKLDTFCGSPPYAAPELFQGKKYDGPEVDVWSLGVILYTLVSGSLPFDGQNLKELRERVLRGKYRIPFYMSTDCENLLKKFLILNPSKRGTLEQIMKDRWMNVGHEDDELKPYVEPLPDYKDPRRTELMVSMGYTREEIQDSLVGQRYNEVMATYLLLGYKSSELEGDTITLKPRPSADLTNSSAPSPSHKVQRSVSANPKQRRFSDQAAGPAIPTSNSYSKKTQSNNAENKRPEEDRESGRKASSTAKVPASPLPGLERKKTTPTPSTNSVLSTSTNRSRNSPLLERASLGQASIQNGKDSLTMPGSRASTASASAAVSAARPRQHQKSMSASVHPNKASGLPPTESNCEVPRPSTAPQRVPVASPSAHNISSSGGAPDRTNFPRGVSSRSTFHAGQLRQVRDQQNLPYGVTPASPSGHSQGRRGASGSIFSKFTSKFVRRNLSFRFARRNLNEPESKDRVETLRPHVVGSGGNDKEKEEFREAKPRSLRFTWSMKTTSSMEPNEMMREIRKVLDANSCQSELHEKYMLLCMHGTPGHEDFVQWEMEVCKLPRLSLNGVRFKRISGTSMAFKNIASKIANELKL

MARK4 = MARK4 (Homo sapiens, UniProt Q96L34); assay: Selectivity profile (123 kinase panel); assay type: biochemical
MER = MER (Homo sapiens, UniProt Q12866); assay: Selectivity profile (123 kinase panel); assay type: biochemical
MSK1 = MSK1 (Homo sapiens, UniProt O75582); assay: Selectivity profile (123 kinase panel); assay type: biochemical
Chain of MSK1 (O75582 whole entry): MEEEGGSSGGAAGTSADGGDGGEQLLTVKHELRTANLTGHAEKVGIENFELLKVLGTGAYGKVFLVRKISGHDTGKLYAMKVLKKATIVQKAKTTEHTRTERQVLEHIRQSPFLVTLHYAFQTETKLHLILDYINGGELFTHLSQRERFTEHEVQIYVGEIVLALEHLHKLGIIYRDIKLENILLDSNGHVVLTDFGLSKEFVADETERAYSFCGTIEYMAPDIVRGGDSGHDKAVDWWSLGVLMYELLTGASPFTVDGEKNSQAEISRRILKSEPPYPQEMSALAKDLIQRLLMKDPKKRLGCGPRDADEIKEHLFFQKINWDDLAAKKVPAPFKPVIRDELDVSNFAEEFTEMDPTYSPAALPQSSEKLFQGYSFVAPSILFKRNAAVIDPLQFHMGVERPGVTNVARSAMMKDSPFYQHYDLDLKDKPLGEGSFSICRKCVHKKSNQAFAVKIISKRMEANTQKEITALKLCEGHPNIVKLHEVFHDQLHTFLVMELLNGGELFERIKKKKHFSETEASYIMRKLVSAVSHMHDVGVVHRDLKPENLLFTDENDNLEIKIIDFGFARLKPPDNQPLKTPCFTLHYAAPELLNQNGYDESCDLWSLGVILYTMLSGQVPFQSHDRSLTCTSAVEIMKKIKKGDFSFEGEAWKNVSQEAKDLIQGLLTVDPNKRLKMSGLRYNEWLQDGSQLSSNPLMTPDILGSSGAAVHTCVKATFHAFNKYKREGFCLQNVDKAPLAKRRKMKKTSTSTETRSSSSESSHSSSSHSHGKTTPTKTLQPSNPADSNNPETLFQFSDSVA

MUSK = MUSK (Homo sapiens, UniProt O15146); assay: Selectivity profile (123 kinase panel); assay type: biochemical
Chain of MUSK (O15146 24-869): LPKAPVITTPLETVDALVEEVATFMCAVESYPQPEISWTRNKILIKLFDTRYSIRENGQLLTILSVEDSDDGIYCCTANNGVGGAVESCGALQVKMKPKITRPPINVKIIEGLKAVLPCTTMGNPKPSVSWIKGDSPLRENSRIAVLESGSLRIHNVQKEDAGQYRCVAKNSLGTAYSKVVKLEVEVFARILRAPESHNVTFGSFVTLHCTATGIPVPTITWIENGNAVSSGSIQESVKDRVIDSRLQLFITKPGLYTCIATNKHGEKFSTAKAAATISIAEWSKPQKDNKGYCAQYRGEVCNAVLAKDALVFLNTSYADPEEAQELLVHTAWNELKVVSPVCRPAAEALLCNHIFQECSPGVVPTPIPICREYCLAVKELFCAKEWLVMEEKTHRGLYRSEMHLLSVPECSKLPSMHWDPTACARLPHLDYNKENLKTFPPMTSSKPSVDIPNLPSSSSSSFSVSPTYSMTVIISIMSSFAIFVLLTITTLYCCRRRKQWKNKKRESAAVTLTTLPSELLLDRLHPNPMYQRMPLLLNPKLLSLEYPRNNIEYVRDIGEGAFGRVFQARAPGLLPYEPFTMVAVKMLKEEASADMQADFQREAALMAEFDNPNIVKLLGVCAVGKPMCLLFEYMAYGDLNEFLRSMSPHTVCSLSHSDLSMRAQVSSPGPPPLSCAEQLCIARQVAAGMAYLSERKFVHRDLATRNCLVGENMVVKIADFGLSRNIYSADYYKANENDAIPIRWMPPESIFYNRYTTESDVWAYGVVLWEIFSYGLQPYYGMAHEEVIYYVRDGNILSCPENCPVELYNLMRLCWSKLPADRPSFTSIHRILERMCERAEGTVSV

NEK1 = NEK1 (Homo sapiens, UniProt Q96PY6); assay: Selectivity profile (123 kinase panel); assay type: biochemical
NuaK1 = NuaK1 (Homo sapiens, UniProt O60285); assay: Selectivity profile (123 kinase panel); assay type: biochemical
PARP9 = PARP9 (Homo sapiens, UniProt Q8IXQ6); assay: Selectivity profile (other isoforms of PARP and NRP family); assay type: biochemical
NRP1 = molecular target: T1, NRP1 (Homo sapiens, UniProt O14786); assay: In vitro NRP1 inhibition assay (125I-VEGF-A binding displacement, NRP1-transfected HUVEC cells); conditions: 125I-VEGF-A165 binding competition, 2 h, 4°C
T1 construct: expressed in transfected cells; host or cells: HUVEC, adenovirus NRP1
Protocol: The method was performed as described previously ([Jarvis et al., 2010]). Radiolabeled binding displacement experiments were performed as described previously ([Jia et al., 2006]). Confluent adenovirus NRP1-transfected HUVEC cells in 96-well plates were washed twice with PBS. At 4°C various concentrations of compounds diluted in binding medium (Dulbecco’s modified Eagle’s medium, 25 mM HEPES, pH 7.3, containing 0.1% BSA) were added, followed by addition of the indicated concentration of ^125I-VEGF-A (1,200–1800 Ci/mmol, GE Healthcare, United Kingdom). After 2 h of incubation at 4°C, the medium was aspirated, and washed four times with cold phosphate-buffered saline. The cells were lysed with 0.25 M NaOH, 0.5% SDS solution, and the bound radioactivity of the lysates was measured. IC50 values were calculated from the competition curves of the compounds in the ^125I-VEGF-A165 binding assay using GraphPad Prism 9 software. Using log(inhibitors) vs response-Variable slope equation in the GraphPad Prism 9 to fit the curves. The equation was as follows: (Top and Bottom are the responses, respectively, at the top and bottom of the curve, Y is the inhibitory response at a given compound concentration X, and the Hillslope describes the steepness of the curve.) Y=Bottom+Top−Bottom/1+10^logIC50−xHillslope

HUVECs = assay: Tube formation analysis; assay type: cell-based, human
Protocol: 50 μL of thawed Matrigel (#356234, BD Biosciences, United States) was added to a 96-well plate and incubated at 37°C for 30 min. After Matrigel gelation, HUVECs (1 × 10^5 cells/mL) were seeded into the basement membrane matrix. Each well was filled with 100 μL of cell suspension. […] Finally, five randomly selected fields per well were photographed with an inverted light microscope. The results were analyzed by ImageJ software to measure and record the number of branch points and tube length for each field. The specific steps are to download the “angiogenesis analyzer” plugin and click on ImageJ, Plugings, Macros, Install, angiogenesis analyzer in sequence. At least three parallel replicates were performed for each condition. The relative number of tubes formation was analyzed using GraphPad Prism 9 software.

Chain of AKT1 (P31749 whole entry): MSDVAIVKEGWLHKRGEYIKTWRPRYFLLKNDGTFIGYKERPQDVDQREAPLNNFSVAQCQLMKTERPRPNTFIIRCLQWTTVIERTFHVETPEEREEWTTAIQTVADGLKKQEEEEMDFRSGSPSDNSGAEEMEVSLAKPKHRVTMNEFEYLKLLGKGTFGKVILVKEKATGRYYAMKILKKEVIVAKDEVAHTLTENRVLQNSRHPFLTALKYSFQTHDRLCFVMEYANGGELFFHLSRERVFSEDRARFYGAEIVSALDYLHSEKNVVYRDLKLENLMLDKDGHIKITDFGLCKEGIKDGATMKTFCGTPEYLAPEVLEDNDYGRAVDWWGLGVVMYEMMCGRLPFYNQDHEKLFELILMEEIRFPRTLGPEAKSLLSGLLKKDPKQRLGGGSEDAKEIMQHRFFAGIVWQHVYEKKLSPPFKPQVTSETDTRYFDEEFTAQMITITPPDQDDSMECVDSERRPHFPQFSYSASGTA
Chain of AurA (O14965 whole entry): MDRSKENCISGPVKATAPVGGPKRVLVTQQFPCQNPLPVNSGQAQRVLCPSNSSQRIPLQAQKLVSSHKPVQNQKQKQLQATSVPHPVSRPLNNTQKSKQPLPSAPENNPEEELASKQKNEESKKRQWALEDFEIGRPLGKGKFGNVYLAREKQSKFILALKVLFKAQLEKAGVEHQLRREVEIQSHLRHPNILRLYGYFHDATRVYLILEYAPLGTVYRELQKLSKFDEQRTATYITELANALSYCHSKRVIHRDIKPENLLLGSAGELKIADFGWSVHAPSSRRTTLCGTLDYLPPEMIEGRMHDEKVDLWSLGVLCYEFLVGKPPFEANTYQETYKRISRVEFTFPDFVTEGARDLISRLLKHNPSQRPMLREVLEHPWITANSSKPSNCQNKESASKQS

NC(N)=NCCC[C@H](NCN1CCN(C(=O)c2cc(Cc3n[nH]c(=O)c4ccccc34)ccc2F)CC1)C(=O)O [PPNR-4] was tested, and the IC50 (AKT1) was > 10 µM, the IC50 (AurA) was > 10 µM and the IC50 (BRAF) was > 10 µM. The IC50 (CRAF) was > 10 µM, the IC50 (CK1γ2) was > 10 µM and the IC50 (DDR2) was > 10 µM. For the same compound, the IC50 (DNA-PK) was > 10 µM, the IC50 (DYRK4) was > 10 µM and the IC50 (EGFR) was > 10 µM. For the same compound, the IC50 (EPHA6) was > 10 µM, the IC50 (EPHB2) was > 10 µM and the IC50 (Erk1) was > 10 µM. The IC50 (Erk5) was > 10 µM, the IC50 (FGR) was > 10 µM and the IC50 (GSK3α) was > 10 µM. For the same compound, the IC50 (HIPK3) was > 10 µM, the IC50 (HIPK4) was > 10 µM and the IC50 (INSR) was > 10 µM. The IC50 (JNK1) was > 10 µM, the IC50 (LYNa) was > 10 µM and the IC50 (MARK1) was > 10 µM. For the same compound, the IC50 (MARK2) was > 10 µM, the IC50 (MARK4) was > 10 µM and the IC50 (MER) was > 10 µM. The IC50 (MSK1) was > 10 µM, the IC50 (MUSK) was > 10 µM and the IC50 (NEK1) was > 10 µM. The IC50 (NuaK1) was > 10 µM, the IC50 (PARP9) was > 10 µM and the IC50 (NRP1) was 0.0245 ± 0.00216 µM. For the same compound, the tube formation (HUVECs; 2, 6, and 18 μM, compared with the control group) was “significantly interfered with tube formation in a dose-dependent manner”, the activity at 6 µM (HUVECs; Homo sapiens, HUVEC, 8 h, 6 μM, 8 h, single replicates, read-out: Relative number of tube formations (% of control)) was 6% and the activity at 18 µM (HUVECs; Homo sapiens, HUVEC, 8 h, 18 μM, 8 h, single replicates, read-out: Relative number of tube formations (% of control)) was 0%.
